pEC50, pIC50: −log10 of the molar value. Read-outs that look alike come from different tables or passages of the source.
How the values were obtained:
Bat-CoV-HKU4-3CL = Bat-CoV-HKU4-3CL (Bat coronavirus HKU4, UniProt P0C6W3); type: cell-based
Bat-CoV-HKU9-3CL = Bat-CoV-HKU9-3CL (Bat coronavirus HKU9, UniProt P0C6W5); type: cell-based
Bat-SV-CoVZC45-3CL = type: cell-based, Bat SL-CoVZC45
BWCoV-SW1-3CL = type: cell-based, Beluga whale coronavirus SW1
CV-B3-3C = CV-B3-3C (Coxsackievirus B3, UniProt P03313); type: cell-based
HCoV-229E-3CL = HCoV-229E-3CL (Human coronavirus 229E, UniProt P0C6X1); type: cell-based
HCoV-HKU1-3CL = HCoV-HKU1-3CL (Human coronavirus HKU1, UniProt P0C6X2); type: cell-based
MERS-CoV-3CL = MERS-CoV-3CL (Middle East respiratory syndrome-related coronavirus, UniProt K9N7C7); type: cell-based
SARS-CoV-3CL = SARS-CoV-3CL (Severe acute respiratory syndrome coronavirus, UniProt P0C6X7); type: cell-based
SARS-CoV-2-3CL [1] = target: T1, SARS-CoV-2-3CL (Severe acute respiratory syndrome coronavirus 2, UniProt P0DTD1); type: cell-based
HCoV-NL63-3CL = HCoV-NL63-3CL (Human coronavirus NL63, UniProt P0C6X5); type: cell-based
HAV-3C = HAV-3C (Human hepatitis A virus genotype IB, UniProt P08617); type: cell-based
SARS-CoV-2-3CL [2] = target: T1, SARS-CoV-2-3CL; experiment: cell-based
SARS-CoV-2 3CL protease = SARS-CoV-2 3CL protease (Severe acute respiratory syndrome coronavirus 2, UniProt P0DTD1); experiment: Biochemical inhibition of peptide cleavage by purified SARS-CoV-2 3CL protease (fluorogenic)
SARS-CoV-2 [3] = type: cell-based
HIV-1-PR = HIV-1-PR (Human immunodeficiency virus type 1 group M subtype B, UniProt P04585); type: cell-based
HIV-2-PR = HIV-2-PR (Human immunodeficiency virus type 2 subtype A, UniProt P04584); type: cell-based
SV-A-3C = type: cell-based, Salivirus
SARS-CoV-PLP [4] = target: T2, SARS-CoV-PLP (Severe acute respiratory syndrome coronavirus, UniProt P0C6X7); experiment: cell-based
SARS-CoV-2 PLP [5] = target: T3, SARS-CoV-2 PLP (Severe acute respiratory syndrome coronavirus 2, UniProt P0DTD1); experiment: biochemical
SARS-CoV-2 PLP [6] = target: T3, SARS-CoV-2 PLP; type: biochemical
SARS-CoV-2 [7] = experiment: microbe, parasite or virus in culture; type: cell-based; conditions: Severe acute respiratory syndrome coronavirus 2, 24 h, read-out: A549-C3 (ACE2/TMPRSS2) IC50, inhibition of SARS-CoV-2 viral replication
Bat-SL-CoVZC45-PLP [8] = target: T4, Bat-SL-CoVZC45-PLP (Bat SARS-like coronavirus, UniProt A0A2R3SV02); type: cell-based
SARS-CoV-2 [9] = experiment: microbe, parasite or virus in culture; type: cell-based; conditions: Severe acute respiratory syndrome coronavirus 2, Huh-7, 24 h, read-out: IC50, inhibition of SARS-CoV-2 viral replication in Huh7 cells
Bat-SL-CoVZC45-PLP [10] = target: T4, Bat-SL-CoVZC45-PLP; type: cell-based; remark: listed apart in the source
POWV-NS2B-GS-NS3 = type: cell-based, tick-borne Powassan virus
SARS-CoV-PLP [11] = target: T2, SARS-CoV-PLP; type: cell-based
SARS-CoV-2 PLP [12] = target: T3, SARS-CoV-2 PLP; type: cell-based
MERS-CoV-PLP = MERS-CoV-PLP (Middle East respiratory syndrome-related coronavirus, UniProt K9N7C7); type: cell-based
SARS-CoV-2 PLP [13] = target: T3, SARS-CoV-2 PLP; type: cell-based; remark: listed apart in the source

CCc1cc(=O)oc2cc(OC(=O)c3ccco3)ccc12 [CB6728297]
magratio (Bat-CoV-HKU4-3CL): 0.5386 | magratio (Bat-CoV-HKU9-3CL): 0.9832 | magratio (Bat-SV-CoVZC45-3CL): 0.6214 | magratio (BWCoV-SW1-3CL): 0.3619 | magratio (CV-B3-3C): 0.2591 | magratio (HCoV-229E-3CL): 0.2941 | magratio (HCoV-HKU1-3CL): 0.5819 | magratio (MERS-CoV-3CL): 0.4038 | magratio (SARS-CoV-3CL): 1.394 | magratio (SARS-CoV-2-3CL [1]): 0.9863 | magratio (HCoV-NL63-3CL): 0.2557 | magratio (HAV-3C): 0.4338 | pEC50 (SARS-CoV-2-3CL [2]): 5.25

O=C(Oc1ccc2ccc(=O)oc2c1)c1cccs1 [CB6762077]
magratio (Bat-CoV-HKU4-3CL): 0.7004 | magratio (Bat-CoV-HKU9-3CL): 0.9258 | magratio (Bat-SV-CoVZC45-3CL): 0.28 | magratio (BWCoV-SW1-3CL): 0.4066 | magratio (HCoV-229E-3CL): 0.2867 | magratio (HCoV-HKU1-3CL): 0.5727 | magratio (SARS-CoV-3CL): 0.6861 | magratio (SARS-CoV-2-3CL [1]): 0.436 | magratio (HCoV-NL63-3CL): 0.351 | magratio (HAV-3C): 0.356 | pEC50 (SARS-CoV-2-3CL [2]): 5.11

O=C(Oc1ccc2ccc(=O)oc2c1)c1ccco1 [CB6778425]
magratio (Bat-CoV-HKU4-3CL): 0.5241 | magratio (Bat-CoV-HKU9-3CL): 0.8169 | magratio (Bat-SV-CoVZC45-3CL): 0.8357 | magratio (BWCoV-SW1-3CL): 0.6941 | magratio (HCoV-229E-3CL): 0.4915 | magratio (HCoV-HKU1-3CL): 0.7283 | magratio (MERS-CoV-3CL): 0.8027 | magratio (SARS-CoV-3CL): 0.5878 | magratio (SARS-CoV-2-3CL [1]): 0.6675 | magratio (HCoV-NL63-3CL): 0.4867 | magratio (HAV-3C): 0.5812 | pEC50 (SARS-CoV-2-3CL [2]): 6.11 | shift of IC50 upon pre-incubation with SARS-CoV-2 3CL (SARS-CoV-2 3CL protease; addition of substrate at 0 and 20 minutes): shifts to lower IC50s | pIC50 (SARS-CoV-2 3CL protease; biochemical fluorogenic assay, read-out: IC50, purified SARS-CoV-2 3CL protease): 7.21 | activity within a live virus setting (SARS-CoV-2 [3]): minimal activity

Cc1cccc(C)c1OCC(=O)N[C@@H](Cc1ccccc1)[C@@H](O)C[C@H](Cc1ccccc1)NC(=O)[C@H](C(C)C)N1CCCNC1=O [Lopinavir]
magratio (HIV-1-PR): 1.188 | magratio (HIV-2-PR): 0.9971

O=C(Oc1cncc(Cl)c1)c1cccs1 [MAC-5576, reference compound]
magratio (Bat-CoV-HKU4-3CL): 0.8566 | magratio (Bat-CoV-HKU9-3CL): 1.805 | magratio (Bat-SV-CoVZC45-3CL): 1.703 | magratio (BWCoV-SW1-3CL): 1.841 | magratio (HCoV-229E-3CL): 1.36 | magratio (HCoV-HKU1-3CL): 1.559 | magratio (MERS-CoV-3CL): 1.133 | magratio (SARS-CoV-3CL): 2.282 | magratio (SARS-CoV-2-3CL [1]): 0.9818 | magratio (HCoV-NL63-3CL): 1.688 | magratio (HAV-3C): 0.7585 | magratio (SV-A-3C): 1.579

CNC(=O)Oc1c(OC)ccnc1C [MAVDA-B-116]
pEC50 (SARS-CoV-PLP [4]): 5.77 to 6.40 | pIC50 (SARS-CoV-2 PLP [5]): 4.74 | trend in IC50 as a function of pre-incubation time with SARS-CoV-2 PLP (SARS-CoV-2 PLP [6]): downward trend in IC50 | pIC50 (SARS-CoV-2 [7]): 4.78

CCOc1ccnc(C)c1OC(=O)NC [MAVDA-B-190]
pEC50 (SARS-CoV-PLP [4]): 5.77 to 6.40 | pIC50 (SARS-CoV-2 PLP [5]): 4.85 | trend in IC50 as a function of pre-incubation time with SARS-CoV-2 PLP (SARS-CoV-2 PLP [6]): downward trend in IC50 | pIC50 (SARS-CoV-2 [7]): < 4.30

Cc1ccc(S)cc1.[Pb] [MAVDA-B-191]
activity in the yeast assay for Bat SL-CoVZC45 PLP (Bat-SL-CoVZC45-PLP [8]): inactive | activity in the yeast assay for SARS-CoV PLP (SARS-CoV-PLP [4]): inactive

O=C(c1ccccc1)C(c1ccccc1)(c1ccccc1)c1ccccc1 [MAVDA-B-194]
activity in the yeast assay for Bat SL-CoVZC45 PLP (Bat-SL-CoVZC45-PLP [8]): inactive | activity in the yeast assay for SARS-CoV PLP (SARS-CoV-PLP [4]): inactive

CNCC(N)=O.Cl [MAVDA-B-195]
activity in the yeast assay for Bat SL-CoVZC45 PLP (Bat-SL-CoVZC45-PLP [8]): inactive | activity in the yeast assay for SARS-CoV PLP (SARS-CoV-PLP [4]): inactive

CNC(=O)Oc1c(OCc2ccccc2)ccnc1C [MAVDA-B-201]
pEC50 (SARS-CoV-PLP [4]): 5.77 to 6.40 | pIC50 (SARS-CoV-2 PLP [5]): 5.01 | trend in IC50 as a function of pre-incubation time with SARS-CoV-2 PLP (SARS-CoV-2 PLP [6]): downward trend in IC50 | pIC50 (SARS-CoV-2 [7]): 4.39

CNC(=O)Oc1c(OC(C)C)ccnc1C [MAVDA-B-217]
pEC50 (SARS-CoV-PLP [4]): 5.77 to 6.40 | pIC50 (SARS-CoV-2 PLP [5]): 5.24 | trend in IC50 as a function of pre-incubation time with SARS-CoV-2 PLP (SARS-CoV-2 PLP [6]): downward trend in IC50 | pIC50 (SARS-CoV-2 [7]): 4.30

CNC(=O)Oc1c(OCC2CCCCC2)ccnc1C [MAVDA-B-219]
pEC50 (SARS-CoV-PLP [4]): 5.77 to 6.40 | pIC50 (SARS-CoV-2 PLP [5]): 5.46 | trend in IC50 as a function of pre-incubation time with SARS-CoV-2 PLP (SARS-CoV-2 PLP [6]): downward trend in IC50 | pIC50 (SARS-CoV-2 [7]): 4.83 | pIC50 (SARS-CoV-2 [9]): 4.79

CCOC(=O)C(=O)Cc1nc2ccccc2s1 [NSC38490]
magratio (MERS-CoV-3CL): 0.2455

COc1cc(O)c(C(=O)/C=C/c2ccccc2)c(OC)c1 [NSC51351]
magratio (HCoV-HKU1-3CL): 0.2725 | magratio (SV-A-3C): 0.2675

CCSc1nc(=S)cc(C)[nH]1 [NSC67307]
magratio (MERS-CoV-3CL): 0.2279

N#Cc1c(N)nc(N)nc1Nc1ccc(Br)cc1 [NSC71866]
magratio (SV-A-3C): 0.2095 | magratio (LGTV-NS2B-GS-NS3): 0.2846

Cc1cc2c(cc1C)N(C(=O)CCl)CC(=O)N2 [NSC138389]
magratio (Bat-CoV-HKU4-3CL): 0.217 | magratio (Bat-SV-CoVZC45-3CL): 0.2787 | magratio (BWCoV-SW1-3CL): 0.6472 | magratio (HCoV-HKU1-3CL): 0.303 | magratio (SARS-CoV-2-3CL [1]): 0.2809 | magratio (Bat-SL-CoVZC45-PLP [10]): 0.922 | magratio (POWV-NS2B-GS-NS3): 0.5885 | magratio (SARS-CoV-PLP [11]): 0.5699 | magratio (LGTV-NS2B-GS-NS3): 0.3021

CN(C(=O)c1ccncc1)c1ccccc1 [NSC204976]
magratio (MERS-CoV-3CL): 0.3045

S=c1[nH]c2ccccc2n2cccc12 [NSC246415]
magratio (Bat-CoV-HKU4-3CL): 0.2265

CCOC(=O)c1c(NC(=S)NC)sc2c1CCCC2 [NSC280492]
magratio (Bat-CoV-HKU4-3CL): 0.288

CNC(=O)Oc1c(C)[nH]ccc1=O [NSC287495]
magratio (Bat-SL-CoVZC45-PLP [10]): 0.8718 | magratio (SARS-CoV-PLP [11]): 0.9749 | magratio (SARS-CoV-2 PLP [12]): 0.3486 | magratio (MERS-CoV-PLP): 0.4201 | pEC50 (SARS-CoV-PLP [4]): 4.64 | response of the SARS-CoV-2 PLP yeast model (SARS-CoV-2 PLP [13]): relatively weak response

N#CCS(=O)(=O)c1cccc[n+]1[O-] [NSC361056]
magratio (BWCoV-SW1-3CL): 0.7101

NC(N)=NC(=S)Nc1ccc(Cl)cc1 [NSC403374]
magratio (Bat-SV-CoVZC45-3CL): 0.2507 | magratio (SARS-CoV-3CL): 0.3199 | magratio (SARS-CoV-2-3CL [1]): 0.7395

Cc1cc(N(C)C)ccc1N=Nc1ccc2ncccc2c1 [NSC680516]
magratio (MERS-CoV-PLP): 0.228

GRL0617 [reference compound]
response of the SARS-CoV-2 PLP yeast model (SARS-CoV-2 PLP [13]): blunted response
